Test results: patent US12686686B2 (priority 2020, dated 2026)
“Also recorded” adds a separate entry of the source. Like-named read-outs stand apart in the source and are kept apart here.

Key:
[1] = tested on: RWPE-1; assay: Cytotoxic activity test (MTT) on normal human prostate cell RWPE-1; type: cell-based
Description: (§1) All prostate cancer cells were cultured with a RPMI-1640 medium containing 10% calf serum, 100 units of penicillin per milliliter and 100 µg/mL of streptomycin in a constant temperature incubator containing 5% carbon dioxide at a saturated humidity of 37° C.
(§2) Cells in the logarithmic phase of growth were taken and cultured in 96-well plates for 24 hours (5×10^3 cells/well), then treated with different concentrations of the compounds to be tested, and incubated by MTT method for 4 hours. The supernatant was removed by centrifugation, the MTT crystals were dissolved by adding DMSO, and the absorbance value was measured by an enzyme-linked immunosorbent assay at a wavelength of 570 nm. The cytotoxic activity of the compounds to be tested on cancer cells was expressed as IC50.

[2] = tested on: LNcap; assay: Cytotoxic activity test (MTT) on LNcap prostate cancer cells; type: cell-based, human; details: read-out: Prostate cancer cells IC50 LNcap
Description: as §1, §2

[3] = tested on: C4-2B; assay: Cytotoxic activity test (MTT) on C4-2B prostate cancer cells; type: cell-based, human; details: C4-2B cells
Description: as §1, §2

[4] = tested on: prostate cancer cells; assay: Inhibitory activity on a variety of prostate cancer cells (Table 1); type: cell-based, human; details: structure-activity statements on Table 1
Description: as §1, §2

[5] = tested on: 22RV1; assay: Cytotoxic activity test (MTT) on 22RV1 prostate cancer cells; type: cell-based, human
Description: as §1, §2

[6] = tested on: C4-2B/ENZR; assay: Cytotoxic activity test (MTT) on C4-2B/ENZR prostate cancer cells; type: cell-based, human; details: C4-2B/ENZR cells
Description: as §1, §2

[7] = tested on: Vcap-CRPC; assay: Cytotoxic activity test (MTT) on Vcap-CRPC prostate cancer cells; type: cell-based, human; details: read-out: Prostate cancer cells IC50 Vcap-CRPC
Description: as §1, §2

[8] = tested on: 22Rv1 human prostate cancer cells; assay: Mice model for 22RV1 prostate cancer growth, oral administration experiment; type: in vivo, nod-scid male mice; details: 22RV1 tumor-bearing mice
Description: (§3) First, a large number of 22RV1 cells were amplified. To ensure the success rate of tumor-bearing, the cell state needs to be adjusted to the optimal state. When the number of the cells was sufficient, the cells were digested and flushed twice with PBS buffer to remove fetal bovine serum (FBS) from the medium to reduce immune rejection. The cells were adjusted to 3000*10^4/mL after counting by a hemocytometer. Then 22Rv1 human prostate cancer cells […] were subcutaneously injected into a 4-5 weeks old nod-scid male mice with severe immunodeficiency.
When the tumor grew to a volume of about 100 mm^3, the mice were randomly divided into 3 groups to make sure that the average tumor volume was the same. The mice in the dosing group were orally gavaged with 0.5 mg/kg and 2 mg/kg of Compound YH-52 per day, and the mice in the control group were given the same volume of normal saline containing DMSO. The body weight of the mice and the length and width of the tumors were measured and recorded every 3 days. The subcutaneous tumors were taken and then photographed at the end of the experiment. The tumor volumes were calculated according to the equation: volume=length×width^2×π/6, and then counted. The experimental results are shown in FIG. 2A, FIG. 2B and FIG. 2C.

[9] = tested on: 22Rv1 human prostate cancer cells; assay: Mice model for 22RV1 prostate cancer growth, intraperitoneal injection in combination with enzalutamide; type: in vivo, nod-scid male mice
Description: as §3
When the tumor grew to about 100 mm^3, the mice were randomly divided into 4 groups to make sure that the average tumor volume was the same. […] The body weight of the mice and the length and width of the tumor were measured and recorded every 3 days. The subcutaneous tumors were taken and then photographed at the end of the experiment. The tumor volumes were calculated according to the equation: volume=length×width^2×π/6, and then counted. The experimental results are shown in FIG. 3A, FIG. 3B, FIG. 3C and FIG. 3D.

[10] = normal human prostate cell RWPE-1, MTT, read-out: Normal cells RWPE-1 (IC50)
[11] = 22RV1 cells, MTT, read-out: Prostate cancer cells IC50 22RV1

Compound | IC50 [1, 10] [µM] | IC50 ([2]; LNcap cells, MTT) [µM] | IC50 [3] [µM] | inhibitory activity on prostate cancer cells (in words) [4] | IC50 [5, 11] [µM] | IC50 [6] [µM] | IC50 ([7]; Vcap-CRPC cells, MTT) [µM] | further results
C=C(C)[C@@]12OC3(c4ccccc4)O[C@@H]1[C@@H]1[C@@H]4O[C@]4(COC(=O)CCCCCCCCCCCCCCC)[C@@H](O)[C@]4(O)C(=O)C(C)=C[C@H]4[C@@]1(O3)[C@H](C)[C@H]2OC(C)=O [YH-5] | 72.8 | 0.0993 | 0.904 | significant decrease in activity | 44.5 | 0.434 | 4.66 | –
C=C(C)[C@@]12OC3(/C=C/C=C/CCCCC)O[C@@H]1[C@@H]1[C@@H]4O[C@]4(CO)[C@@H](O)[C@]4(O)C(=O)C(C)=C[C@H]4[C@@]1(O3)[C@H](C)[C@H]2OC(=O)c1ccccc1 [YH-16] | 9.67 | – | – | more cytotoxic | – | – | – | IC50 ([2]; Homo sapiens, LNCaP): 0.00543 µM; IC50 ([5]; Homo sapiens, 22Rv1, read-out: Prostate cancer cells IC50 22RV1): 0.0332 µM; IC50 ([7]; Homo sapiens): 0.0057 µM
C=C(C)[C@@]12OC3(/C=C/C=C/CCCCC)O[C@@H]1[C@@H]1[C@@H]4O[C@]4(COC(=O)c4ccccc4)[C@@H](O)[C@]4(O)C(=O)C(C)=C[C@H]4[C@@]1(O3)[C@H](C)[C@H]2OC(=O)c1ccccc1 [YH-20] | – | – | 1.58 | significant decrease in activity | – | 5.76 | – | –
C=C(C)[C@@]12OC3(/C=C/C=C/CCCCC)O[C@@H]1[C@@H]1[C@@H]4O[C@]4(COC(=O)c4ccccc4)[C@@H](O)[C@]4(O)C(=O)C(C)=C[C@H]4[C@@]1(O3)[C@H](C)[C@H]2OC(C)=O [YH-25] | – | – | – | significant decrease in activity | – | – | – | IC50 ([3]; Homo sapiens): 0.593 µM; IC50 ([6]; Homo sapiens): 2.3 µM
C=C(C)C12OC3(c4ccccc4)OC1C1C(O)C(O)(CO)C(O)C4(O)C(=O)C(C)=CC4C1(O3)C(C)C2OC(=O)c1ccccc1 (centres unmarked) [YH-51] | 12.3 | 0.00251 | 0.00781 | significantly reduced activity | 1.77 | 0.0774 | 0.00202 | –
C=C(C)[C@@]12OC3(c4ccccc4)O[C@@H]1[C@@H]1[C@H](O)[C@](Br)(CO)[C@@H](O)[C@]4(O)C(=O)C(C)=C[C@H]4[C@@]1(O3)[C@H](C)[C@H]2OC(=O)c1ccccc1 [YH-52] | – | – | – | most prominent; also recorded: enhanced activity | – | – | – | IC50 ([1]; Homo sapiens, RWPE-1, read-out: Normal cells RWPE-1 (IC50)): 53.6 µM; toxicity for the normal human prostate cell RWPE-1 ([1]; compared with prototype compound YH-11): significantly reduced toxicity; tumor growth in mice ([8]; oral gavage 0.5 mg/kg per day): significantly inhibit tumor growth; tumor growth in mice ([8]; oral gavage 2 mg/kg per day): significantly inhibit tumor growth; effect in combination with ENZ ([9]; intraperitoneal injection 0.1 mg/kg in combination with ENZ (10 mg/kg)): significant synergistic effect; efficacy compared to the positive drug enzalutamide (ENZ) ([9]; intraperitoneal injection 0.1 mg/kg per day, ENZ 10 mg/kg): greater efficacy
